# Results: patent US12370235B2, “Synthetic, non-natural antimicrobial peptides inspired by Staphylococcus auricularis delta toxin” (University of Saskatchewan, priority 2021, dated 2025)
# Where two headings read alike, the source gives them in different places. Ends that are not written are not given here.
# Columns and labels:
# M. luteus ATCC 4698 = assay: MIC, broth dilution; type: cell-based, Micrococcus luteus
# Outline: (§1)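 Peptides of 95% purity tested as 2-fold dilution series against bacteria diluted to OD 6×10^−4 in cation-adjusted Mueller Hinton broth. Standing cultures incubated overnight at 37° C; MIC is the lowest concentration with no visible growth.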
# S. aureus ATCC 29213 = assay: MIC, broth dilution; type: cell-based, Staphylococcus aureus; settings: Table 5; STIP3 variants, highest concentration 100 μg/mL
# Outline: as §1
# [1] = test system: S. aureus ATCC 33592 (MRSA SCCmec type III); assay: MIC, broth dilution; type: cell-based, Staphylococcus aureus; settings: Table 5; STIP3 variants, highest concentration 100 μg/mL
# Outline: as §1
# [2] = test system: S. aureus ATCC BAA-1683 (MRSA SCCmec type IV); assay: MIC, broth dilution; type: cell-based, Staphylococcus aureus; settings: Table 5; STIP3 variants, highest concentration 100 μg/mL
# Outline: as §1
# [3] = test system: S. aureus ATCC BAA-2094 (MRSA SCCmec type V); assay: MIC, broth dilution; type: cell-based, Staphylococcus aureus; settings: Table 5; STIP3 variants, highest concentration 100 μg/mL
# Outline: as §1
# [4] = test system: S. aureus ATCC BAA-2313 (MRSA SCCmec type XI); assay: MIC, broth dilution; type: cell-based, Staphylococcus aureus; settings: Table 5; STIP3 variants, highest concentration 100 μg/mL
# Outline: as §1
# [5] = test system: S. aureus ATCC BAA-41 (MRSA SCCmec type II); assay: MIC, broth dilution; type: cell-based, Staphylococcus aureus; settings: Table 5; STIP3 variants, highest concentration 100 μg/mL
# Outline: as §1
# [6] = test system: S. aureus ATCC BAA-42 (MRSA SCCmec type VI); assay: MIC, broth dilution; type: cell-based, Staphylococcus aureus; settings: Table 5; STIP3 variants, highest concentration 100 μg/mL
# Outline: as §1
# [7] = test system: S. aureus ATCC BAA-44 (MRSA SCCmec type I); assay: MIC, broth dilution; type: cell-based, Staphylococcus aureus; settings: Table 5; STIP3 variants, highest concentration 100 μg/mL
# Outline: as §1
# [8] = test system: S. aureus bovid isolate (RDM-1); assay: MIC, broth dilution; type: cell-based, Staphylococcus aureus; settings: clinical isolate
# Outline: as §1
# [9] = test system: S. pseudintermedius canine isolate MRSP16; assay: MIC, broth dilution; type: cell-based, Staphylococcus pseudintermedius
# Experimental: (§2) MIC determination. MICs were measured using peptides with 95% purity. For bacterial studies, cation-adjusted Mueller Hinton (MH) broth was used as the growth medium whereas Yeast Peptone Dextrose (YPD; 10 g/L yeast extract, 20 g/L peptone, 20 g/L dextrose) was used for Candida spp. and other yeast. Microorganisms were diluted to an optical density of […] in MH or YPD broth and a 180 μl volume was mixed with 20 μl of peptide arrayed as a 2-fold dilution series in a flat-bottom 96-well microtitre plate. A control was performed using 20 μl of sterile water. Plates were incubated as standing cultures overnight at 37° C.
# (§3) Determination of minimum inhibitory concentrations. The MICs were measured for bioactive peptides identified from the initial screen. For bacterial studies, cation-adjusted Mueller Hinton (MH) broth was used as the growth medium whereas YPD was used for C. albicans. Bacterial cultures were diluted to a OD value of 6×10^−4 in MH broth and a 180 μl volume was mixed with 20 μl of peptide arrayed as 2-fold dilution series in a 96-well plate. For the positive control, 20 μl of sterile water was used. Plates were incubated as standing cultures overnight at 37° C. The lowest peptide concentration that resulted no observed microbial growth after an overnight treatment was defined as the MIC.
# [10] = test system: S. pseudintermedius canine isolate MRSP24; assay: MIC, broth dilution; type: cell-based, Staphylococcus pseudintermedius
# Experimental: as §2, §3
# [11] = test system: S. pseudintermedius canine isolate MSSP42; assay: MIC, broth dilution; type: cell-based, Staphylococcus pseudintermedius
# Experimental: as §2, §3
# [12] = test system: S. pseudintermedius human isolate SPC001 (MSSP); assay: MIC, broth dilution; type: cell-based, Staphylococcus pseudintermedius
# Experimental: as §2, §3
# [13] = test system: S. pseudintermedius human isolate SPC002 (MSSP); assay: MIC, broth dilution; type: cell-based, Staphylococcus pseudintermedius
# Experimental: as §2, §3
# [14] = test system: S. pseudintermedius human isolate SPC020 (MSSR); assay: MIC, broth dilution; type: cell-based, Staphylococcus pseudintermedius
# Experimental: as §2, §3
# C. albicans MYA-2876 = assay: MIC, YPD broth; type: cell-based, Candida albicans; settings: Table 8
# Outline: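 Minimum inhibitory concentrations against Candida albicans were determined in YPD broth (10 g/L yeast extract, 20 g/L peptone, 20 g/L dextrose) using peptides of 95% purity. A 180 μl volume of diluted yeast was combined with 20 μl of peptide in a 2-fold dilution series in 96-well plates, with sterile water as control, then incubated standing overnight at 37° C.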
# C. albicans Y537 = assay: MIC, YPD broth; type: cell-based, Candida albicans; settings: Table 8
# [15] = Circular dichroism spectroscopy; type: physicochemical; settings: CD, 50% (v/v) TFE
# Outline: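 Secondary structure of peptides dissolved in water at 0.3–0.5 mg/mL was assessed by CD. Spectra were recorded from 180 to 260 nm at room temperature in a 0.1 cm quartz cuvette; water and 50% (v/v) TFE conditions were compared.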
# MRSA ATCC 33592 = assay: DiSC3(5) membrane polarization assay; type: cell-based, Staphylococcus aureus; settings: 1.56 to 25 μg/mL
# Experimental: Membrane disruption and depolarization are commonly reported mechanisms of AMP action. Two indirect assays that rely on fluorescent dyes were employed to assess the interaction of STIP3-29 and D-STIP3-29 with bacterial membranes. First, changes to SYTOX fluorescence was measured when MRSA ATCC 33592 was treated with increasing peptide concentrations ranging from one fourth to four-fold the MIC. […] Next, DiSC3(5), a cationic dye that binds to polarized membranes was used to report on possible depolarization related to AMP treatment. […] Thus, without wishing to be bound by theory, a more conservative explanation of the results is that the cationic peptides increase membrane permeability to SYTOX and that the like-charge of the AMPs to the reporter of polarization may confound the interpretation of the indirect assay. For example, the AMPs may simply displace the self-quenching DiSC3(5) molecules from the membrane surface without causing depolarization.
substance,measurement,setting,value
"TVGGLVKWILKTVKKFA-NH2 [STIP3-29, TVGGLVKWILKTVKKFA-NH2]",MIC M. luteus,M. luteus ATCC 4698,1.56 µg/mL
same,MIC M. luteus,M. luteus ATCC 4698; molar,850 nM
same,fold improvement of activity (MIC),"M. luteus ATCC 4698; relative to STIP3-1, M. luteus",8 fold
same,MIC S. aureus ATCC 29213,S. aureus ATCC 29213,12.5 µg/mL
same,MIC S. aureus ATCC 33592 (III),[1],6.25 µg/mL
same,MIC S. aureus ATCC BAA 1683 (IV),[2],6.25 µg/mL
same,MIC S. aureus ATCC BAA 2094 (V),[3],6.25 µg/mL
same,MIC S. aureus ATCC BAA 2313 (XI),[4],6.25 µg/mL
same,MIC S. aureus ATCC BAA 41 (II),[5],6.25 µg/mL
same,MIC S. aureus ATCC BAA 42 (VI),[6],6.25 µg/mL
same,MIC S. aureus ATCC BAA 44 (I),[7],6.25 µg/mL
same,MIC,[8],6.25 µg/mL
same,MIC,[9],3.13 µg/mL
same,MIC,[10],3.13 µg/mL
same,MIC,[11],3.13 µg/mL
same,MIC,[12],3.13 µg/mL
same,MIC,[13],3.13 µg/mL
same,MIC,[14],3.13 µg/mL
same,MIC C. albicans MYA-2876,C. albicans MYA-2876,12.5 µg/mL
same,MIC C. albicans Y537,C. albicans Y537,25 µg/mL
same,α helicity (%),[15],61%
same,DiSC3(5) fluorescence change,MRSA ATCC 33592,dose-dependent increase in fluorescence
